Laboratory results reported in patent publication US5502202A, “Aminoalkylthiazole derivative” (Taisho Pharmaceutical Co., Ltd., priority 1991, dated 1996).
Counter-ions that a name gives are not always drawn.

Legend:
[1] = target: dopamine D2 receptor (Rattus norvegicus, UniProt P61169); experiment: biochemical; assay type: binding, rat (male Wistar); conditions: for IC50: 2 nM [3H](-)-sulpiride, rat striata membrane, pH 7.7, 37° C., 10 min; for inhibition at 1 µM: pH 7.7, read-out: Dopamine D2 receptor Inhibition % (1 μM)
dopamine D2 receptor (Rattus norvegicus, UniProt P61169), sequence (P61169 whole entry): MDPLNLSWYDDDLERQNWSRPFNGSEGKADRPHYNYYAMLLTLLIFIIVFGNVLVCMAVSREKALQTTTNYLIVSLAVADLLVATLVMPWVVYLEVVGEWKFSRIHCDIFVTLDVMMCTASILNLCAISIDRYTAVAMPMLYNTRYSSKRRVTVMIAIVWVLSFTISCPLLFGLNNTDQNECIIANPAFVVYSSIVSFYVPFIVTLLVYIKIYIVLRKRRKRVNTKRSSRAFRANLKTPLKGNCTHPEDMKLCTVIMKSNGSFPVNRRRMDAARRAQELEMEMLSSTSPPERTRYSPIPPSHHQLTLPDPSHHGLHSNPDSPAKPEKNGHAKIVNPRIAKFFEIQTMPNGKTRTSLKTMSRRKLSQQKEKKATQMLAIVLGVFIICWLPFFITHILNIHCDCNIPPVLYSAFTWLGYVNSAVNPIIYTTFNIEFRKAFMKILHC
Procedure: (§1) Male Wistar rats were employed as test animals.
(§2) Radiolabeled ^3 H! […] (-)-sulpiride was used as a compound specifically binding to dopamine D2 receptor.
(§3) Reactions of these ^3 H! compounds binding to the corresponding receptors were performed respectively in accordance with the following methods (1) and (2) described in Molecular Pharmacology, 32, 772 (1987), Journal of Pharmacy and Pharmacology, 32, 441 (1980) and Molecular Pharmacology, 32, 820 (1987).
(2) ^3 H! (-)-sulpiride binding:
(-)-sulpiride and a test drug were incubated in 1 ml of a 50 mM Tris-HCl buffer solution (pH 7.7) at 37° C. for 10 minutes.
(§4) After the completion of each reaction, the reaction mixture was filtered with suction into a glass filter (GF/B) and the radioactivity of the filter paper was measured with a liquid scintillation spectrometer.
(§5) (-)-sulpiride, and the difference between the total binding (the value measured by adding no test drug) and the nonspecific binding was referred to as the specific binding.
(§6) By reacting the ^3 H! compound at a definite concentration (2 nM) with the test drugs at various concentrations under the conditions as specified in the above (1) and (2), inhibition curves were obtained. On the basis of these inhibition curves, the concentration of each test drug causing 50% inhibition of the specific binding (IC50) was determined.

[2] = target: sigma receptor (Rattus norvegicus, UniProt Q9R0C9); experiment: biochemical; assay type: binding, rat (male Wistar); conditions: for IC50: 2 nM [3H](+)-3-PPP, rat whole brain membrane, pH 8.0, 21° C., 90 min; for inhibition at 1 µM: pH 8, read-out: Sigma receptor Inhibition % (1 μM)
sigma receptor (Rattus norvegicus, UniProt Q9R0C9), sequence (Q9R0C9 whole entry): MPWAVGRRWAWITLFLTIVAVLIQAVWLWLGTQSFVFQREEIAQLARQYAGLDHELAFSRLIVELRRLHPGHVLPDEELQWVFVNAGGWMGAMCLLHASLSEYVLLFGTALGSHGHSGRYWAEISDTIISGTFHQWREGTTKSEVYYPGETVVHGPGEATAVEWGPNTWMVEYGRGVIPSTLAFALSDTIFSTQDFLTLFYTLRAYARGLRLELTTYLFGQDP
Procedure: as §1, §2, §3, §4, §5, §6

[3] = target: sigma receptor; conditions: rimcazole, cited from European Journal of Pharmacology, 155, 345 (1988); cited from earlier work
[4] = target: dopamine D2 receptor; conditions: rimcazole, cited; value for [3H] spiperone binding; cited from earlier work
[5] = test system: (+)-SKF 10047-induced stereotypical behavior; experiment: Test on action on (+)-SKF 10047-induced abnormal (stereotypical) behaviors; assay type: in vivo, mouse (male ICR); conditions: Mus musculus; oral, 30 min (35 min for drug C) before 30 mg/kg i.p. (+)-SKF 10047; scores over 40 min; read-out: ED25 (stereotypical behavior suppression)
Procedure: TEST EXAMPLE 2 Test on Action on (+)-[…] Abnormal Behaviors! Male ICR mice (Nippon Charles River) aged 4 to 5 weeks were divided into groups each having 10 animals and used. Each animal was separately fed in a small transparent cage and fully familiarized with its environment. To the animals, test drugs […] % gum arabic at various concentrations were orally administered. […] Since 10 minutes thereafter, stereotypical behavior scores were measured for 40 minutes at intervals of 5 minutes. (Test drug) (Stereotypical behavior score) 0: normal behaviors 1: sniffing, standing up 2: discontinuous movement, sniffing stronger than 1 3: circling, moving backward 4: continuous circling 5: bending and stretching of limbs, head and neck The stereotypical behavior suppression ratio was determined on the basis of the sum of the scores of the test groups measured 8 times within 40 minutes by referring the sum of the score of a solvent (distilled water for injection) administered-group measured 8 times within 40 minutes as to 100%. Each ED25 value was calculated by determining the slope of a line of the suppression ratio formed by the method of least squares.

[6] = test system: dopamine autoreceptor; conditions: reported in literature, cited from earlier work

`CCCCCCCCN(CCCCCCCC)CCc1sc(N)nc1-c1ccc(Br)cc1` [Test Drug C (Table 1), 2Amino-4-(4-bromophenyl)-5-(2-di-n-octylaminoethyl)-thiazole dihydrochloride] gave an IC50 [1] greater than 1000 nM, an inhibition at 1 µM [1] of -31% and an IC50 [2] of 3.2 nM. It also gave an inhibition at 1 µM [2] of 99.7%.
For `C[C@@H]1CN(CCCn2c3ccccc3c3ccccc32)C[C@H](C)N1` [Rimcazole], the IC50 [3] is listed as 1460 nM, the IC50 [4] is listed as 86000 nM and the ED25 [5] is listed as 37.9 mg/kg.
For `C=CCN1CCc2nc(N)sc2CC1` [talipexole], the “effect on dopamine nerve system (in words)” value ([6]; by stimulating the presynaptic autoreceptor) is listed as “suppresses nerve ignition and biosynthesis and liberation of dopamine” and the “selective dopamine autoreceptor agonism (in words)” value [6] is listed as “selective dopamine autoreceptor agonist”.
Work on `CCCCCN(CCCCC)CCc1sc(N)nc1-c1ccc(Br)cc1` [Test Drug A (Table 1), 2Amino-4-(4-bromophenyl)-5-(2-di-n-pentylaminoethyl)-thiazole dihydrochloride] yielded an IC50 [2] of 8.7 nM and an inhibition at 1 µM [2] of 93.1%.
Work on `OC(CCCN1CCN(c2ncc(F)cn2)CC1)c1ccc(F)cc1` (stereo not drawn) [BMY 14802] yielded an ED25 [5] of 7.6 mg/kg.
Work on `CCCN1CCCC(c2cccc(O)c2)C1` (single isomer, unassigned) [3-PPP, 3-(3-hydroxyphenyl)-N-n-propylpiperidine, reference compound] yielded an IC50 [2] of 24.3 nM.
Work on `CCCCCCN(CCCCCC)CCc1sc(N)nc1-c1ccc(Br)cc1.Cl.Cl` [Test Drug B (Table 1), 2-Amino-4-(4-bromophenyl)-5-(2-di-n-hexylaminoethyl)thiazole dihydrochloride] yielded an ED25 [5] of 0.019 mg/kg, an IC50 [1] greater than 1000 nM and an inhibition at 1 µM [1] of -33.3%. It also gave an IC50 [2] of 1.6 nM and an inhibition at 1 µM [2] of 100%.
